# Marks after values point to notes of the source that are not given here.
# Test system: male rats
# Experiment: Plasma metabolite profiling (GC-MS, LC-MS, SPE-LC-MS) in male rats dosed once daily over 28 days (OECD 407)
# Assay type: in vivo, rat
# Set-up: key to erythro-Sphingoside (d18:1) / Tricosanoic acid (C23:0) / beta-Sitosterol / Tryptophan: ratio of treated group mean to untreated control group mean
# Description: Each dose group in the studies consisted of five rats per sex. Additional groups of each 5 male and female animals served as controls. […] All animals of the animal population were kept under the same constant temperature (20-24±3° C.) and the same constant humidity (30-70%). The animals of the animal population were fed ad libitum. The food to be used was essentially free of chemical or microbial contaminants. Drinking water was also offered ad libitum. Accordingly, the water was free of chemical and microbial contaminants as laid down in the European Drinking Water Directive 98/83/EG. The illumination period was 12 hours light followed by 12 hours darkness (12 hours light, from 6:00 to 18:00, and 12 hours darkness, from 18:00 to 6:00). […] The test substances (compounds) in the Tables 1 to 17 below were dosed and administered as described in the Table 18.
# In the morning of day 7, 14, and 28, blood was taken from the retroorbital venous plexus from fasted anaesthetized animals. From each animal, 1 ml of blood was collected with EDTA as anticoagulant. The samples were centrifuged for generation of plasma. All plasma samples were covered with a N2 atmosphere and then stored at −80° C. until analysis.
# For mass spectrometry-based metabolite profiling analyses plasma samples were extracted and a polar and a non-polar (lipid) fraction was obtained. For GC-MS analysis, the non-polar fraction was treated with methanol under acidic conditions to yield the fatty acid methyl esters. Both fractions were further derivatised with O-methyl-hydroxyamine hydrochloride and pyridine to convert Oxogroups to O-methyloximes and subsequently with a silylating agent before analysis. In LC-MS analysis, both fractions were reconstituted in appropriate solvent mixtures. HPLC was performed by gradient elution on reversed phase separation columns. Mass spectrometric detection which allows target and high sensitivity MRM (Multiple Reaction Monitoring) profiling in parallel to a full screen analysis was applied as described in WO2003073464.
# Steroids and their metabolites were measured by online SPE-LC-MS (Solid phase extraction-LC-MS).
# Following comprehensive analytical validation steps, the data for each analyte were normalized against data from pool samples. These samples were run in parallel through the whole process to account for process variability. The significance of treatment group values specific for sex, treatmentduration and metabolite was determined by comparing means of the treated groups to the means of the respective untreated control groups using WELCH-test and quantified with treatment ratios versus control and p-values.
# The identification of the most important biomarkers per toxicity pattern was done by a ranking of the analytes in the tables below. Therefore the metabolic changes in reference treatments of a given pattern (shown in the table) were compared with changes of the same metabolite in other unrelated treatments. […] The maximum absolute value of the respective TVALUE was taken to indicate the most important metabolite for the pattern.
structure (smiles),measurement,setting,value
CC(C)C(=O)Nc1ccc([N+](=O)[O-])c(C(F)(F)F)c1 [Flutamide],alpha-Tocopherol,"m14, high dose, Table 11a",1.16
same,beta-Sitosterol,"m14, high dose, Table 11a",0.91
same,"dihomo-gamma-Linolenic acid (C20:cis[8,11,14]3)","m14, high dose, Table 11a",1.46 *
same,erythro-Sphingosine (d18:1),"m14, high dose, Table 11a",0.79
same,threo-Sphingosine (d18:1),"m14, high dose, Table 11a",0.95
same,3-Hydroxybutyrate,"m14, high dose, Table 11b",0.72 *
same,4-Hydroxy-3-methoxyphenylglycol (HMPG),"m14, high dose, Table 11b",0.7 *
same,18-Hydroxy-11-deoxycorticosterone,"m14, high dose, Table 11b",0.48 *
same,21-Hydroxyprogesterone (11-Deoxycorticosterone),"m14, high dose, Table 11b",0.31 *
same,Citrate,"m14, high dose, Table 11b",0.88 *
same,Coenzyme Q10,"m14, high dose, Table 11b",0.43 *
same,Corticosterone,"m14, high dose, Table 11b",0.38 *
same,Metanephrine,"m14, high dose, Table 11b",0.61 *
same,Palmitoleic acid (C16:cis[9]1),"m14, high dose, Table 11b",0.68 *
same,"Phosphatidylcholine (C16:0, C16:0)","m14, high dose, Table 11b",0.7 *
same,Progesterone,"m14, high dose, Table 11b",0.33 *
same,trans-4-Hydroxyproline,"m14, high dose, Table 11b",0.89 *
same,3-O-Methylsphingosine (d18:1),"m28, high dose, Table 10a",1.52^
same,Cysteine,"m28, high dose, Table 10a",1.41 *
same,Lignoceric acid (C24:0),"m28, high dose, Table 10a",1.3 *
same,Nervonic acid (C24:cis[15]1),"m28, high dose, Table 10a",1.46 *
same,alpha-Tocopherol,"m28, high dose, Table 10a",1.54 *
same,threo-Sphingosine (d18:1),"m28, high dose, Table 10a",1.38 *
same,"Phosphatidylcholine (C16:0, C16:0)","m28, high dose, Table 10b",0.81 *
same,Thyroxine (T4),"m28, high dose, Table 10b",0.72^
same,trans-4-Hydroxyproline,"m28, high dose, Table 10b",0.72 *
same,3-Methoxytyrosine,"m28, high dose, Table 11a",1.55 *
same,3-O-Methylsphingosine (d18:1),"m28, high dose, Table 11a",1.52 *
same,Androstenedione,"m28, high dose, Table 11a",18.79 *
same,Behenic acid (C22:0),"m28, high dose, Table 11a",1.34 *
same,Cholesterol,"m28, high dose, Table 11a",1.22 *
same,Cysteine,"m28, high dose, Table 11a",1.41 *
same,Eicosanoic acid (C20:0),"m28, high dose, Table 11a",1.93 *
same,Histidine,"m28, high dose, Table 11a",0.98^
same,Lignoceric acid (C24:0),"m28, high dose, Table 11a",1.3 *
same,Nervonic acid (C24:cis[15]1),"m28, high dose, Table 11a",1.46 *
same,Noradrenaline (Norepinephrine),"m28, high dose, Table 11a",0.93^
same,"Phosphatidylcholine (C18:0, C20:3)","m28, high dose, Table 11a",0.94^
same,"Phosphatidylcholine (C18:0, C22:6)","m28, high dose, Table 11a",1.34 *
same,Testosterone,"m28, high dose, Table 11a",8.45 *
same,Threonine,"m28, high dose, Table 11a",1.22 *
same,alpha-Tocopherol,"m28, high dose, Table 11a",1.19^
same,beta-Sitosterol,"m28, high dose, Table 11a",0.89^
same,"dihomo-gamma-Linolenic acid (C20:cis[8,11,14]3)","m28, high dose, Table 11a",2.58 *
same,"myo-Inositol-2-phosphate, lipid fraction","m28, high dose, Table 11a",1.44 *
same,threo-Sphingosine (d18:1),"m28, high dose, Table 11a",1.38 *
same,4-Hydroxy-3-methoxyphenylglycol (HMPG),"m28, high dose, Table 11b",0.8 *
same,18-Hydroxy-11-deoxycorticosterone,"m28, high dose, Table 11b",0.07 *
same,21-Hydroxyprogesterone (11-Deoxycorticosterone),"m28, high dose, Table 11b",0.26 *
same,Citrate,"m28, high dose, Table 11b",0.9
same,Coenzyme Q9,"m28, high dose, Table 11b",0.95^
same,Coenzyme Q10,"m28, high dose, Table 11b",0.4 *
same,Corticosterone,"m28, high dose, Table 11b",0.07 *
same,Metanephrine,"m28, high dose, Table 11b",0.48 *
same,Palmitoleic acid (C16:cis[9]1),"m28, high dose, Table 11b",0.6 *
same,"Phosphatidylcholine (C16:0, C16:0)","m28, high dose, Table 11b",0.81 *
same,Progesterone,"m28, high dose, Table 11b",0.25 *
same,trans-4-Hydroxyproline,"m28, high dose, Table 11b",0.72 *
same,3-Hydroxybutyrate,"rat, in vivo",1.08^
same,Behenic acid (C22:0),"rat, in vivo",1.12 *
same,Cholesterol,"rat, in vivo",1.43 *
same,Coenzyme Q9,"rat, in vivo",1.04^
same,Cysteine,"rat, in vivo",1.21^
same,"Galactose, lipid fraction","rat, in vivo",1.23 *
same,"Glycerol phosphate, lipid fraction","rat, in vivo",1.28 *
same,Lignoceric acid (C24:0),"rat, in vivo",1.43 *
same,"Phosphatidylcholine (C16:0, C16:0)","rat, in vivo",1.12^
same,"Phosphatidylcholine (C18:0, C18:2)","rat, in vivo",1.13^
same,"Phosphatidylcholine (C18:0, C20:3)","rat, in vivo",1.14 *
same,"Phosphatidylcholine (C18:0, C22:6)","rat, in vivo",1.01^
same,Stearic acid (C18:0),"rat, in vivo",1.29 *
same,Tryptophan,"rat, in vivo",1.08 *
same,alpha-Tocopherol,"rat, in vivo",1.43 *
same,beta-Sitosterol,"rat, in vivo",1.24 *
same,"myo-Inositol-2-phosphate, lipid fraction","rat, in vivo",1.06 *

# Reference: patent publication US20150010928A1, “MEANS AND METHODS FOR ASSESSING AN ENDOCRINE DISEASE OR DISORDER” (priority 2012, published 2015)
